The structures appear in SMILES notation. A value given as a limit tells only on which side of the number the result lay.

Our source for the IC50 values is US20220017512A1 (SHANGHAI ENNOVABIO PHARMACEUTICALS CO., LTD., priority 2018, published 2022).

Holding throughout (assay type): biochemical
Assay [1] has as its target T1, Recombinant human TRKA (Homo sapiens, UniProt P04629).
T1 construct: purchased Carna Biosciences
The assay can be described thus: In vitro activity test on TRKA kinase (HTRF KinEASE TK). Particulars: 14.68 μM ATP, 40 min. The protocol:
(§1) Biological Test Example 1 In Vitro Activity Test on TRKA, TRKB, TRKC Kinase
(§2) Recombinant human TRKA, TRKB, TRKC proteins were purchased from Carna Biosciences. HTRF KinEASE TK kit was purchased from Cisbio Bioassays. Synergy Neo 2 of Biotek was used to read the plate.
(§3) The tested compound was subjected to 3-fold serial dilution to reach a final concentration of 1 μM to 0.05 nM (10 concentrations), duplicates for each concentration; and the DMSO concentration in the detection reaction was 1%.
0.2 ng/μL TRKA protein kinase, 1 μM TK Substrate-biotin polypeptide substrate, 14.68 μM ATP, 1× enzymatic buffer, 5 mM MgCl2, and 1 mM DTT. The detection plate was White Proxiplate384-Plus plate (PerkinElmer), and incubated at room temperature for 40 min, and the assay volume was 10 μL.
(§4) 10 μL of detection reagent was added to the plate (containing 0.125 μM SA-XL665 and 5 μL 1×TK-Antibody) and incubated overnight at room temperature, and Synergy Neo 2 was used to read the plate.
(§5) The 665/620 Ratio was converted according to the following formula into inhibition rate (%)=(1−Ratiotest/Ratiomax)×100%. Ratiomax was a positive control without tested compound, and Ratiotest was the value of each concentration of different compounds. IC50 (nM) data was obtained by 4 parameter curve fitting (see Table 1).

The target in assay [2] is T2, Recombinant human TRKB (Homo sapiens, UniProt Q16620).
T2 construct: purchased Carna Biosciences
T2 sequence (Q16620 32-822): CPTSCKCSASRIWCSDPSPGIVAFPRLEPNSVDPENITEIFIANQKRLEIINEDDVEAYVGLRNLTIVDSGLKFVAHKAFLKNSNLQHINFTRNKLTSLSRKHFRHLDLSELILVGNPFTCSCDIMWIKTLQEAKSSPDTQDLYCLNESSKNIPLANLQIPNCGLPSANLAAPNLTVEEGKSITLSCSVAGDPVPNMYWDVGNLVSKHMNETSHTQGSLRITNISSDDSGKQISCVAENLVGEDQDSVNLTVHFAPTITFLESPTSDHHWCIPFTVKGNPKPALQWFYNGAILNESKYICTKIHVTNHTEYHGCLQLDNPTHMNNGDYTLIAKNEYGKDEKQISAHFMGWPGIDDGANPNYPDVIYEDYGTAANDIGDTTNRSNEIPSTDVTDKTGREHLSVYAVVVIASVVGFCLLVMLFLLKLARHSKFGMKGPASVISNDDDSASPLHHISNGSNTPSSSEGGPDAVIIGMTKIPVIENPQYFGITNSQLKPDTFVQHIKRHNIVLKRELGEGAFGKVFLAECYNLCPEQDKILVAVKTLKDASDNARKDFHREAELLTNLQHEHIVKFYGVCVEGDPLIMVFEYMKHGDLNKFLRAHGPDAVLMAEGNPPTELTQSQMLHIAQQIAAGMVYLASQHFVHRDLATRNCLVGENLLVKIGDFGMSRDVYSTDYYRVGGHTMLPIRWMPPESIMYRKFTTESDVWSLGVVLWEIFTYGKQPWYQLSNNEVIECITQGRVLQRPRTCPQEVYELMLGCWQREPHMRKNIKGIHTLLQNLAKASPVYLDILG
The assay can be described thus: In vitro activity test on TRKB kinase (HTRF KinEASE TK). As to conditions: 4.77 μM ATP, 50 min. As for the experimental part:
as §1, §2, §3
0.037 ng/μL TRKB protein kinase, 1 μM TK Substrate-biotin polypeptide substrate, 4.77 μM ATP, 1× enzymatic buffer, 5 mM MgCl2, and 1 mM DTT. The detection plate was White Proxiplate 384-Plus plate (PerkinElmer), and incubated at room temperature for 50 min, and the assay volume was 10 μL.
as §4, §5
A general note: In TR-FRET formats the signal depends on donor and acceptor labels being close together.

Assay [3] addresses T3, Recombinant human TRKC (Homo sapiens, UniProt Q16288).
T3 construct: purchased Carna Biosciences
The assay can be described thus: In vitro activity test on TRKC kinase (HTRF KinEASE TK). As to conditions: 25.64 μM ATP, 40 min. As for the experimental part: as §1, §2, §3
0.037 ng/μL TRKC protein kinase, 1 μM TK Substrate-biotin polypeptide substrate, 25.64 μM ATP, 1× enzymatic buffer, 5 mM MgCl2, and 1 mM DTT. The detection plate was White Proxiplate 384-Plus plate (PerkinElmer), and incubated at room temperature for 40 min, and the assay volume was 10 μL.
as §4, §5

Assay [4] has as its target T4, recombinant human TRKA (G595R) (Homo sapiens, UniProt P04629, G595R).
T4 construct: purchased SignalChem
Kind of assay: In vitro activity test on mutant TRKA (G595R) (HTRF KinEASE TK). As to conditions: 4.5 μM ATP, 30 min. As for the experimental part:
Biological Test Example 2 In Vitro Activity Test on Mutant TRKA (G595R), TRKA (G667C) and TRKC (G623R)
The recombinant human TRKA (G595R), TRKA (G667C) and TRKC (G623R) proteins were purchased from SignalChem. HTRF kinEASE TK kit was purchased from CisbioBioassays. Synergy Neo 2 of Biotek was used to read the plate.
The tested compound was subjected to 4-fold serial dilution to reach a final concentration of 1 μM to 0.004 nM (10 concentrates), duplicates for each concentration; and 1% DMSO was present in the detection reaction.
0.12 ng/μL TRKA (G595R) kinase, 1 μM TK Substrate-biotin polypeptide substrate, 4.5 μM ATP, 1× enzymatic buffer, 5 mM MgCl2, and 1 mm DTT. The detection plate was White Proxiplate384-Plus plate (PerkinElmer), and incubated at room temperature for 30 min, and the assay volume was 10 μL.
as §4
The value of 665/620 Ratio minus the value of negative control wells without enzyme, then the obtained value was converted according to the following formula into inhibition rate (%)=(1−Ratiotest/Ratiomax)×100%. Ratiomax was a positive control without tested compound, and Ratiotest was the value of each concentration of different compounds. IC50 (nM) data was obtained by 4 parameter curve fitting (see Table 1).

T1 sequence (P04629 33-796): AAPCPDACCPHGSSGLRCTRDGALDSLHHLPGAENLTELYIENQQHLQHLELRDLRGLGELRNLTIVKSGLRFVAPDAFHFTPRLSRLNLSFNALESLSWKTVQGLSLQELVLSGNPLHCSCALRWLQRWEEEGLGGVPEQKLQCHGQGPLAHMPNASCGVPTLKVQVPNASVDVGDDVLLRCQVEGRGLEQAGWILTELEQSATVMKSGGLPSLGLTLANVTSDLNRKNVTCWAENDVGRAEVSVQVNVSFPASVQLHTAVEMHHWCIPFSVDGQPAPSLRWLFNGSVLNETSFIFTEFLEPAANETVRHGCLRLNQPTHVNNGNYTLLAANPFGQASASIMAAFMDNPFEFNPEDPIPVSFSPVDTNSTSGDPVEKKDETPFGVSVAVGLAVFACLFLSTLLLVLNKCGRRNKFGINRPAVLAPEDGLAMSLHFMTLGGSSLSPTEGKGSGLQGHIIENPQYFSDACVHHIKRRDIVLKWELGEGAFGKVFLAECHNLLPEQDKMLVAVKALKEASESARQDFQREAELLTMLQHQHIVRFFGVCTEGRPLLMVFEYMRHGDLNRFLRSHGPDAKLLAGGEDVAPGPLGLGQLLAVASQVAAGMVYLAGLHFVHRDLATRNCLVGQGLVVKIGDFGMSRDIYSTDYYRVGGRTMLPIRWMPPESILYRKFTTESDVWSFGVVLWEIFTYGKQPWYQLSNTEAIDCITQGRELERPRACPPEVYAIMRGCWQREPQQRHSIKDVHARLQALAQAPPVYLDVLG
T3 sequence (Q16288 32-839): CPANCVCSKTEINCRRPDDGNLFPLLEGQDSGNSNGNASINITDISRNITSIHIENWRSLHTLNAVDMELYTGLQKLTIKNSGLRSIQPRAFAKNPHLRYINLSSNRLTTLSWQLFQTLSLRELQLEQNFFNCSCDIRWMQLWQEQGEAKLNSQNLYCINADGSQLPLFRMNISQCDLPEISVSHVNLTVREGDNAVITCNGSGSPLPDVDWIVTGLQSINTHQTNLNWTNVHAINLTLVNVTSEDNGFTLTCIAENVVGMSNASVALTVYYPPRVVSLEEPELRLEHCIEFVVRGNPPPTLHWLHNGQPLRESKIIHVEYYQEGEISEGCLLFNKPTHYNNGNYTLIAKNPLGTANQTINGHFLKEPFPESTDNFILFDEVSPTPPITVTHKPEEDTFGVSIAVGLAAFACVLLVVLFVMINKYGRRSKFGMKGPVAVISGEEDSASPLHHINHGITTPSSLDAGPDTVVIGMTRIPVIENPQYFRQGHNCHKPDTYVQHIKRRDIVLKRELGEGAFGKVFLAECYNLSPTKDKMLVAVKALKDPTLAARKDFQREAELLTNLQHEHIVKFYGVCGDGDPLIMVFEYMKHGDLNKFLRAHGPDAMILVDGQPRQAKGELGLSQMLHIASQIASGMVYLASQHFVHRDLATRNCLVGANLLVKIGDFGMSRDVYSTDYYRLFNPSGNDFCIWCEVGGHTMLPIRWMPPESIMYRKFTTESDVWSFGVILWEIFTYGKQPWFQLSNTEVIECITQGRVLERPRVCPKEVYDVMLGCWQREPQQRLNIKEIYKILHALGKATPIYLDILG
T4 sequence (P04629 33-796 G595R): as the sequence (P04629 33-796) above, with G563R counted along it

What is called IC50 is the concentration at which inhibition is half-maximal. Regarding `Fc1ccc(F)c([C@H]2C[C@H](F)CN2c2ncc3ncnc(-c4cnn(C5CCNCC5)c4)c3n2)c1` [Example 76, 2-((2R,4S)-2-(2,5-difluorophenyl)-4-fluoropyrrolidin-1-yl)-8-(1-(piperidin-4-yl)-1H-pyrazol-4-yl)pyrimido[5,4-d]pyrimidine], the IC50 in assay [1] is under 1 nM; in assay [2], under 10 nM; in assay [3] it was under 10 nM; in assay [4], under 10 nM.
As for `O[C@H]1CCN(c2nc(-c3ncnc4ccc(N5C[C@@H](F)C[C@@H]5c5cc(F)ccc5F)nc34)no2)C1` [Example 68, (S)-1-(3-(6-((2R,4S)-2-(2,5-difluorophenyl)-4-fluoropyrrolidin-1-yl)pyrido[3,2-d]pyrimidin-4-yl)-1,2,4-oxadiazol-5-yl)pyrrolidin-3-ol], the IC50 was under 1 nM in assay [1], under 10 nM in assay [2], under 10 nM in assay [3] and under 10 nM in assay [4].
On to `Fc1ccc(F)c([C@H]2C[C@H](F)CN2c2ccc3ncnc(-c4cnc(C5CCNCC5)nc4)c3n2)c1` [Example 91, 6-((2R,4S)-2-(2,5-Difluorophenyl)-4-fluoropyrrolidin-1-yl)-4-(2-(piperidin-4-yl)pyrimidin-5-yl)pyrido[3,2-d]pyrimidine], for which the IC50 in assay [1] is under 1 nM; in assay [2] it was under 1 nM; in assay [3], under 1 nM; in assay [4], under 10 nM.
For `Fc1ccc(F)c([C@H]2C[C@H](F)CN2c2ccc3ncnc(-c4cn(C5CCNCC5)nn4)c3n2)c1` [Example 86, 6-((2R,4S)-2-(2,5-Difluorophenyl)-4-fluoropyrrolidin-1-yl)-4-(1-(piperidin-4-yl)-1H-1,2,3-triazol-4-yl)pyrido[3,2-d]pyrimidine], the IC50 in assay [1] was under 1 nM; in assay [2] it was under 10 nM; in assay [3], under 1 nM; in assay [4] it was under 10 nM.
Take `O=C(O)[C@H]1CCN(c2ncc(-c3ncnc4ccc(N5C[C@@H](F)C[C@@H]5c5cc(F)ccc5F)nc34)cn2)C1` [Example 87, (S)-1-(5-(6-((2R,4S)-2-(2,5-difluorophenyl)-4-fluoropyrrolidin-1-yl)pyrido[3,2-d]primidin-4-yl)pyrimidin-2-yl)pyrrolidin-3-carboxylic acid]: the IC50 in assay [1], in assay [2], in assay [3] and in assay [4] was under 1 nM in each case.
As to `Fc1ccc(Cl)c([C@H]2CCCN2c2ccc3ncc(F)c(-c4cnn(C5CCNCC5)c4)c3n2)c1` [Example 89, (R)-2-(2-(2-Chloro-5-fluorophenyl)pyrrolidin-1-yl)-7-fluoro-8-(1-(piperidin-4-yl)-1H-pyrazol-4-yl)-1,5-naphthyridine], the IC50 in assay [1] is under 1 nM; in assay [2] it was under 10 nM; in assay [3], under 10 nM; in assay [4], under 1 nM.
Take `Fc1ccc(F)c([C@H]2C[C@H](F)CN2c2ccc3ncc(F)c(-c4cn(C5CCNCC5)nn4)c3n2)c1` [Example 83, 2-((2R,4S)-2-(2,5-difluorophenyl)-4-fluoropyrrolidin-1-yl)-7-fluoro-8-(1-(piperidin-4-yl)-1H-1,2,3-triazol-4-yl)-1,5-naphthyridine]: the IC50 in assay [1] was under 1 nM; in assay [2] it was under 10 nM; in assay [3] it was under 10 nM; in assay [4], under 10 nM.
With `O=C(O)[C@@H]1CCN(c2ncc(-c3ncnc4ccc(N5C[C@@H](F)C[C@@H]5c5cc(F)ccc5F)nc34)cn2)C1` [Example 88, (R)-1-(5-(6-((2R,4S)-2-(2,5-difluorophenyl)-4-fluoropyrrolidin-1-yl)pyrido[3,2-d]primidin-4-yl)pyrimidin-2-yl)pyrrolidin-3-carboxylic acid], the IC50 in assay [1], in assay [2], in assay [3] and in assay [4] was under 1 nM each time.
Take `Fc1ccc(F)c([C@H]2C[C@H](F)CN2c2ccc3ncnc(-c4noc(C5CCNCC5)n4)c3n2)c1` [Example 81, 3-(6-((2R,4S)-2-(2,5-difluorophenyl)-4-fluoropyrrolidin-1-yl)pyrido[3,2-d]pyrimidin-4-yl)-5-(piperidin-4-yl)-1,2,4-oxadiazole]: the IC50 in assay [1] was under 1 nM; in assay [2], under 10 nM; in assay [3], under 10 nM; in assay [4], under 10 nM.
For `O=C1N(c2ccnc3ccc(N4C[C@@H](F)C[C@@H]4c4cc(F)ccc4F)nc23)CC12CCNCC2` [Example 94, 2-(6-((2R,4S)-2-(2,5-difluorophenyl)-4-fluoropyrrolidin-1-yl)-1,5-naphthyridin-4-yl)-2,7-diazaspiro[3.5] nonane-1-one], the 50% inhibitory concentration (IC50) in assay [1], in assay [2], in assay [3] and in assay [4] was under 1 nM each time.
`O=c1n(-c2ccnc3ccc(N4C[C@@H](F)C[C@@H]4c4cc(F)ccc4F)nc23)ccn1C1CCNCC1` [Example 95, 1-(6-((2R,4S)-2-(2,5-difluorophenyl)-4-fluoropyrrolidin-1-yl)-1,5-naphthyridin-4-yl)-3-(piperidin-4-yl)-1,3-dihydro-2H-imidazol-2-one]: the IC50 is under 1 nM in assay [1], under 10 nM in assay [2], under 1 nM in assay [3] and under 1 nM in assay [4].
Turning to `Fc1cnc(Cl)c([C@H]2CCCN2c2ccc3ncc(F)c(-c4cnn(C5CCNCC5)c4)c3n2)c1` [Example 90, (R)-2-(2-(2-Chloro-5-fluoropyridin-3-yl)pyrrolidin-1-yl)-7-fluoro-8-(1-(piperidin-4-yl)-1H-pyrazol-4-yl)-1,5-naphthyridine], the IC50 in assay [1] was under 1 nM; in assay [2] it was under 10 nM; in assay [3], under 10 nM; in assay [4], under 1 nM.
On to `OC1CCN(c2nc(-c3ncnc4ccc(N5C[C@@H](F)C[C@@H]5c5cc(F)ccc5F)nc34)no2)CC1` [Example 80, 1-(3-(6-((2R,4S)-2-(2,5-difluorophenyl)-4-fluoropyrrolidin-1-yl)pyrido[3,2-d]pyrimidin-4-yl)-1,2,4-oxadiazol-5-yl)piperidin-4-ol], for which the IC50 in assay [1] is under 1 nM; in assay [2], under 10 nM; in assay [3], under 10 nM; in assay [4], under 10 nM.
Turning to `OC1CCC(Nc2ccnc3ccc(N4CCC[C@@H]4c4cc(F)ccc4F)nc23)C1` (stereo partly drawn) [Example 1, 3-((6-((R)-2-(2,5-difluorophenyl)pyrrolidin-1-yl)-1,5-naphthyridin-4-yl)amino)cyclopentane-1-ol], the IC50 was under 10 nM in assay [1], under 50 nM in assay [2], under 10 nM in assay [3] and under 50 nM in assay [4].
`CC1(O)CCN(c2ncc(-c3ncnc4ccc(N5C[C@@H](F)C[C@@H]5c5cc(F)ccc5F)nc34)cn2)C1` (stereo partly drawn) [Example 85, 1-(5-(6-((2R,4S)-2-(2,5-difluorophenyl)-4-fluoropyrrolidin-1-yl)pyrido[3,2-d]pyrimidine-4-yl)pyrimidin-2-yl)-3-methylpyrrolidin-3-ol]: the IC50 in assay [1] is under 1 nM; in assay [2] it was under 1 nM; in assay [3], under 1 nM; in assay [4] it was under 10 nM.
With `Fc1ccc(F)c([C@H]2C[C@H](F)CN2c2ccc3ncc(Cl)c(-c4cnn([C@H]5CCCNC5)c4)c3n2)c1` [Example 55, 7-chloro-2-((2R,4S)-2-(2,5-difluorophenyl)-4-fluoropyrrolidin-1-yl)-8-(1-((S)-piperidin-3-yl)-1H-pyrazol-4-yl)-1,5-naphthyridine], the IC50 in assay [1] was under 10 nM; in assay [2], under 500 nM; in assay [3] it was under 500 nM.
